According to patent US20060148766A1 (priority 2002, published 2006):

Tested on: living body
Assay: Toxicity test
Conditions: in vivo

SMILES: CN(C)c1ccc(O)c2c1C[C@H]1C[C@H]3[C@H](N(C)C)C(O)=C(C(N)=O)C(=O)[C@@]3(O)C(O)=C1C2=O [minocycline]
- side effects on the living body: no particular side effects
